Measured values reported in the supplement of paper PMC10627819.

How the values were obtained:
S. aureus Newman [1] = test: fitness (endpoint OD595 vs no drug) (fraction); higher = more growth
In short: (§1)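 Cultures at OD595 0.01 were dispensed into 384-well plates in TSB, LB Lennox or CY and incubated at 37 °C. Every 30 min for 14 h, OD595 was read and corrected by the first reading. Fitness is the optical density at entry into stationary phase relative to the robust mean of no-drug control wells, capped at 1.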

B. subtilis 168 [2] = test: as above
In short: as §1

S. aureus DSM 20231 [3] = test: as above
In short: as §1

S. aureus Newman [4] = test: Bliss interaction score (quartile over a dose matrix) (fitness difference); higher = more antagonism (negative = synergy)
In short: (§2)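 Quartiles of the Bliss score were taken over technical, biological and donor/recipient replicates. That score is observed fitness minus the product of the single-drug fitness values, which were inferred from combination data. Fitness itself is OD595 at entry into stationary phase divided by the plate's robust no-drug mean, with a cap at 1.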

B. subtilis 168 [5] = test: as above
In short: as §2

S. pneumoniae D39V = test: as above
In short: as §2

S. aureus DSM 20231 [6] = test: as above
In short: as §2
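Throughout, for Bliss interaction score (quartile over a dose matrix): first quartile when negative (synergy) and third quartile when positive (antagonism).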

CC[C@H]1OC(=O)[C@H](C)[C@@H](O[C@H]2C[C@@](C)(OC)[C@@H](O)[C@H](C)O2)[C@H](C)[C@@H](O[C@@H]2O[C@H](C)C[C@H](N(C)C)[C@H]2O)[C@](C)(O)C[C@@H](C)CN(C)[C@H](C)[C@@H](O)[C@]1(C)O [Azithromycin] + COc1ccc(C[C@H](N)C(=O)N[C@H]2[C@@H](O)[C@H](n3cnc4c(N(C)C)ncnc43)O[C@@H]2CO)cc1 [Puromycin]
fitness
Conditions	partner 0.39 µg/mL	partner 0.78 µg/mL	partner 1.56 µg/mL
B. subtilis 168 [2], first compound 0.25 µg/mL	0.888	0.913	0.95
B. subtilis 168 [2], first compound 0.5 µg/mL	0.828	0.815	0.82
S. aureus DSM 20231 [3], first compound 0.125 µg/mL	0.849	0.863	0.923
S. aureus DSM 20231 [3], first compound 0.25 µg/mL	0.881	0.936	0.891
S. aureus Newman [1], first compound 0.125 µg/mL	0.915	0.905	0.945
S. aureus Newman [1], first compound 0.25 µg/mL	0.884	0.836	0.889
S. aureus Newman [1], first compound 0.5 µg/mL	0.559	–	0.524

fitness, S. aureus DSM 20231 [3], one replicate
Conditions	first compound 0.125 µg/mL	first compound 0.25 µg/mL	first compound 0.5 µg/mL
partner 3.12 µg/mL	≥ 1	0.915	0.293
partner 6.24 µg/mL	0.615	0.237	0.0525

Conditions	Bliss interaction score
B. subtilis 168 [5]	-0.0345
S. aureus DSM 20231 [6]	-0.0839
S. aureus Newman [4]	-0.0828
S. pneumoniae D39V	-0.0719

CC[C@H]1OC(=O)[C@H](C)[C@@H](O[C@H]2C[C@@](C)(OC)[C@@H](O)[C@H](C)O2)[C@H](C)[C@@H](O[C@@H]2O[C@H](C)C[C@H](N(C)C)[C@H]2O)[C@](C)(O)C[C@@H](C)CN(C)[C@H](C)[C@@H](O)[C@]1(C)O [Azithromycin] + COc1cccc2c1C(=O)c1c(O)c3c(c(O)c1C2=O)C[C@@](O)(C(=O)CO)C[C@@H]3O[C@H]1C[C@H](N)[C@H](O)[C@H](C)O1 [Doxorubicin]
fitness
Conditions	partner 0.625 µg/mL	partner 1.25 µg/mL	partner 2.5 µg/mL
B. subtilis 168 [2], first compound 0.25 µg/mL	0.964	0.92	0.791
B. subtilis 168 [2], first compound 0.5 µg/mL	0.879	0.847	0.767
S. aureus DSM 20231 [3], first compound 0.125 µg/mL	0.811	0.794	0.781
S. aureus DSM 20231 [3], first compound 0.25 µg/mL	0.811	0.824	0.778
S. aureus DSM 20231 [3], first compound 0.5 µg/mL	0.62	0.672	0.569
S. aureus Newman [1], first compound 0.125 µg/mL	0.777	0.775	0.735
S. aureus Newman [1], first compound 0.25 µg/mL	0.827	0.779	0.77
S. aureus Newman [1], first compound 0.5 µg/mL	0.659	0.665	0.561

B. subtilis 168 [2], first compound 2 µg/mL, one replicate
Conditions	fitness
partner 0.625 µg/mL	0.358
partner 1.25 µg/mL	0.176
partner 2.5 µg/mL	0.0297

Conditions	Bliss interaction score
B. subtilis 168 [5]	0.164
S. aureus DSM 20231 [6]	0.115
S. aureus Newman [4]	0.0458
S. pneumoniae D39V	-0.0571
